The assay concerns bovine retinal homogenate. The assay can be described thus: Ferrous chloride-induced peroxidation of bovine retinal homogenate in vitro, TBA value (Experiment 1 (A)). It is filed as biochemical. The note with it: 10^-4 M. The procedure:
(A) In vitro experiment using a bovine retinal homogenate:
Effects of 2-O-octadecylascorbic acid on the peroxidation induced by adding ferrous chloride to a bovine retinal homogenate were examined.
(1) Retinae were removed from bovine eyeballs (1/2 eye). Physiological saline was added to the retinae to prepare bovine retinal homogenates.
(2) Ferrous chloride (0.5 mM, dissolved in distilled water) was added to each of the retinal homogenates obtained in the above. Further, 2-O-octadecylascorbic acid and α-tocopherol were added to the resulting homogenates to final concentrations of the reaction mixtures of 10^-4 M, respectively. Further, distilled water was added to each of the homogenates to adjust a total volume to 1 ml. 2-O-octadecylascorbic acid and α-tocopherol were dissolved and diluted with ethanol. Thus, the final concentrations of ethanol in all of the reaction mixtures were adjusted to 1%. Then, the mixtures were subjected to reaction at 37° C. for 1 hour.
(3) 0.35% thiobarbituric acid (hereinafter referred to as TBA) reagent (50% aqueous acetic acid solution)(1 ml) was added to the reaction mixtures or standard solutions of the retinal homogenates obtained in the above (2). The mixtures were subjected to reaction in boiling water at 100° C. for 1 hour. After water cooling, n-butanol (2 ml) was added, and the mixtures were shaken for 5 minutes and centrifuged at 3000 rpm for 10 minutes. Fluorescence intensities (excitation wave length: 515 nm, emission wave length: 553 nm) were determined for the n-butanol layer. Proteins were determined using Bio-Rad Protein Assay Kit (trade name).

Molecules are shown by their SMILES.

As to `Cc1c(C)c2c(c(C)c1O)CCC(C)(CCCC(C)CCCC(C)CCCC(C)C)O2` (stereo not drawn) [α-Tocopherol, α-tocopherol, reference compound], under “0.5 mM ferrous chloride, 37° C., 1 hour, mean ± S.D., n=3, p < 0.001 vs control”, the “Retina: TBA value” is given as 2.38 ± 0.12 nM malondialdehyde/mg protein. Further, the Inhibitory ratio (ferrous chloride control = 0, blank = 100, 60 min) turned out to be 61.6%.

Values taken from patent publication US5665769A, “Pharmaceutical composition for preventing and treating retinal diseases” (Senju Pharmaceuticals Co., Ltd., priority 1993, dated 1997).
